Experimental data reported in the supplement of paper PMC10307832.

Assays:
Assay in all cases: relative viability (nuclei count vs DMSO), 5 days (fraction); higher = more cells survive
Navitoclax = compound: CC1(C)CCC(c2ccc(Cl)cc2)=C(CN2CCN(c3ccc(C(=O)NS(=O)(=O)c4ccc(N[C@H](CCN5CCOCC5)CSc5ccccc5)c(S(=O)(=O)C(F)(F)F)c4)cc3)CC2)C1 [Navitoclax]
In short: (§1)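 Viability was defined as treated-well nuclei divided by vehicle-well nuclei, with the median taken over replicate plates. Cells from lung cancer lines sat overnight at 37 °C in 1536-well plates, received five √10-spaced library-drug doses by pinning on vehicle-anchored plates, and grew 5 days without medium change before one-step fixation, permeabilisation and Hoechst staining, 4× imaging and MetaXpress nuclear counts. Only plates with control CV under 25% and at least one doubling were kept.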

C-75 = compound: CCCCCCCC[C@H]1[C@@H](C(=C)C(=O)O1)C(=O)O [C-75]
In short: as §1

XAV939 = compound: Oc1nc(-c2ccc(C(F)(F)F)cc2)nc2c1CSCC2 [XAV939]
In short: as §1

[1] = compound: O=C(O)c1ccc(-c2c[nH]c3ncc(-c4ccccc4)cc23)cc1C1CCCC1
In short: as §1

AZD7762 = compound: NC(=O)Nc1cc(-c2cccc(F)c2)sc1C(=O)N[C@H]1CCCNC1 [AZD7762]
In short: as §1

Cell Line | relative viability (Navitoclax; 0.005 µM) | relative viability (Navitoclax; 0.01581 µM) | relative viability (Navitoclax; 0.05 µM) | relative viability (Navitoclax; 0.1581 µM) | relative viability (Navitoclax; 0.5 µM) | relative viability (Navitoclax; 0.5 µM, anchor plate) | relative viability (C-75; 0.08 µM) | relative viability (C-75; 0.253 µM) | relative viability (C-75; 0.8 µM) | relative viability (C-75; 2.53 µM) | relative viability (C-75; 8 µM) | relative viability (XAV939; 0.08 µM) | relative viability (XAV939; 0.253 µM) | relative viability (XAV939; 0.8 µM) | relative viability (XAV939; 2.53 µM) | relative viability ([1]; 0.04 µM) | relative viability ([1]; 0.1265 µM) | relative viability ([1]; 0.4 µM) | relative viability ([1]; 1.265 µM) | relative viability (AZD7762; 0.01 µM) | relative viability (AZD7762; 0.03162 µM) | relative viability (AZD7762; 0.1 µM) | relative viability (AZD7762; 0.2 µM, anchor plate) | relative viability (AZD7762; 0.3162 µM) | relative viability (AZD7762; 1 µM)
PC-3 [JPC-3] | 1.03 | 1.07 | 1.08 | 1.01 | 1.02 | 0.816 | 0.961 | 0.97 | 0.994 | 0.995 | 1.16 | 1.02 | 0.924 | 1.02 | 0.947 | 1.07 | 1.09 | 1 | 0.945 | 1.03 | 1.06 | 1.1 | 0.897 | 1.05 | 0.931
NCI-H650 | 0.908 | 0.97 | 0.956 | 0.853 | 1.04 |  | 0.916 | 0.875 | 0.862 | 0.87 | 0.817 | 1.03 | 1.08 | 0.99 | 0.824 | 0.908 | 1.03 | 0.77 | 0.67 | 1.08 | 1.05 | 0.905 | 1.03 | 0.954 | 0.914
NCI-H441 | 0.981 | 1.07 | 1.06 | 1.11 | 0.986 | 0.701 | 1.14 | 1.09 | 0.907 | 0.764 | 0.957 | 1.18 | 0.962 | 1.1 | 1.04 | 1.01 | 1.08 | 0.817 | 0.6 | 1.11 | 1.2 | 1.05 | 1.14 | 1.34 | 1.03
201T | 1.06 | 1.14 | 0.974 | 0.957 | 1.04 | 1.19 | 1.02 | 1.16 | 0.987 | 0.917 | 0.993 | 0.96 | 0.808 | 0.762 | 0.846 | 0.997 | 1.05 | 0.948 | 1 | 0.937 | 1.01 | 1.02 | 0.596 | 0.92 | 0.878
H3255 | 0.979 | 1.17 | 0.87 | 0.92 | 0.786 | 0.529 | 0.963 | 0.973 | 0.945 | 0.901 | 0.995 | 1.06 | 0.892 | 0.814 | 0.895 | 0.954 | 1.04 | 0.97 | 0.944 | 1.05 | 1.04 | 1.04 | 0.971 | 0.958 | 0.856
NCI-H1355 | 1.03 | 1.07 | 0.956 | 0.975 | 0.986 | 1.01 | 0.966 | 1.01 | 0.921 | 0.89 | 0.982 | 0.938 | 0.831 | 0.826 | 0.759 | 1.02 | 1.14 | 0.979 | 0.744 | 0.874 | 0.979 | 0.938 | 0.819 | 1.09 | 0.785
LU99A | 0.916 | 1.13 | 0.933 | 1.03 | 1.04 | 0.839 | 1 | 0.928 | 0.97 | 0.834 | 0.858 | 0.78 | 0.827 | 0.939 | 1.02 | 0.958 | 0.941 | 0.894 | 0.65 | 0.943 | 1.1 | 0.995 | 0.356 | 0.986 | 0.414
IA-LM | 0.941 | 1.07 | 0.915 | 1 | 0.977 | 0.755 | 0.917 | 1.14 | 0.87 | 0.676 | 0.853 | 0.937 | 0.864 | 0.935 | 0.701 | 0.921 | 1.1 | 1.07 | 0.887 | 1.12 | 1.02 | 1.15 |  | 1.01 | 0.708
EBC-1 | 0.931 | 1.17 | 0.958 | 1.1 | 0.718 | 0.451 | 1.04 | 1.08 | 0.956 | 0.84 | 0.757 | 1.05 | 0.901 | 0.882 | 0.817 | 1.02 | 1.14 | 0.923 | 0.633 | 1.1 | 0.98 | 0.993 |  | 0.939 | 0.576
HCC-44 | 0.897 | 0.906 | 0.977 | 0.849 | 0.96 | 0.98 | 1 | 0.991 | 0.908 | 0.824 | 1.05 | 0.962 | 0.899 | 0.915 | 0.929 | 0.97 | 0.99 | 0.973 | 0.928 | 1.01 | 0.958 | 1.06 | 1 | 0.874 | 0.914
NCI-H460 | 0.988 | 1.01 | 0.951 | 0.977 | 0.963 | 1.08 | 1.01 | 1.04 | 0.922 | 0.768 | 0.946 | 0.996 | 0.88 | 0.944 | 0.929 | 1.01 | 1.05 | 0.991 | 0.92 | 1.06 | 1 | 1.01 | 0.618 | 0.954 | 0.387
ABC-1 | 0.833 | 0.977 | 0.846 | 0.984 | 0.976 |  | 0.904 | 0.864 | 0.917 | 0.733 | 0.676 | 0.927 | 0.847 | 0.677 | 0.568 | 0.801 | 1.16 | 0.861 | 0.936 | 0.975 | 0.985 | 0.956 | 0.809 | 0.532 | 0.384
CAL-12T | 0.935 | 1.05 | 1.01 | 0.985 | 1.01 | 1.14 | 1.06 | 1.15 | 0.859 | 0.922 | 1.08 | 1 | 0.884 | 0.877 | 0.814 | 1.08 | 1.17 | 0.914 | 0.734 | 0.993 | 0.982 | 1.06 | 0.646 | 0.724 | 0.241
